Consider two molecules from article PMC11540844, “Enhancing transcription–replication conflict targets ecDNA-positive cancers” (Nature, 2024).

One test deals with COLO320DM cells. As to the kind of experiment: Cell viability / CTG proliferation (CellTiter-Glo). The format is cell-based, human. Here is the method:
(§1) Cell viability assay was performed using CellTiter-Glo (Promega, catalgoue no. G8461) as previously described. Briefly, cells were seeded into a 384-well plate one day before adding inhibitors. Equal volumes of vehicles or drugs diluted at indicated concentration were added into each well the next day, and the cells were incubated for three days. On the third day, after equilibrating plate and CellTiter-Glo reagent at room temperature for 30 min, reagent was added into each well and incubated for 15 min at room temperature. Luminescence was measured using a Synergy 2 microplate reader. Four biological replicates were performed for each condition. Data analysis was performed with GraphPad Prism (v.9.1.0).
In general terms: Cellular ATP, detected with luciferase, serves as a proxy for viable cell number.

For another test, the system named is COLO320HSR cells. The test is described as follows: Cell viability / CTG proliferation (CellTiter-Glo). The format is cell-based, human. As to conditions: for IC50: Extended Data Fig. 8. As for the experimental part: as §1
The subject of the next test is SNU16 cells. The test is described as follows: Cell viability (CellTiter-Glo). The format is cell-based, human. As to conditions: Extended Data Fig. 8; read-out: IC50 SNU16. As for the experimental part:
as §1, with “(v.9.1.0). […]” for “(v.9.1.0).”

A further test has as its system GBM39HSR cells. As to the kind of experiment: Cell viability (CellTiter-Glo). The format is cell-based, human. As to conditions: Extended Data Fig. 8. Here is the method:
as §1

The test system of a further test is GBM39ec cells. The test is described as follows: Cell viability (CellTiter-Glo). The format is cell-based, human. As to conditions: Extended Data Fig. 8. Here is the method:
as §1

The test system of test [1] is γH2AX in COLO320DM and COLO320HSR cells. As to the kind of experiment: γH2AX IF combined with EdU labelling. The format is cell-based, human. As to conditions: COLO320DM vs COLO320HSR, especially EdU+ cells. Here is the method: Coverslips were coated with 100 µg ml^−^1 poly-L-lysine overnight or 10 µg ml^−^1 laminin for 1 h at 37 °C before seeding cells. Asynchronized cells were seeded onto slides and subject to different treatment. Where indicated, EdU was added to each well at 10 µg ml^−^1 30 min before collecting samples. IF and dual-IF DNA FISH staining were performed as described before. Briefly, slides were fixed with ice-cold 4% paraformaldehyde (PFA) for 15 min, followed by permeabilization with 0.5% Triton X-100 in PBS for 15 min at room temperature. Samples were blocked with 3% BSA in PBS for 1 h at room temperature before incubation with primary antibody diluted in blocking buffer at 4 °C overnight. Dilution ratio for first antibodies was as follows: γH2Ax, 1:500; pRPA2-S33, 1:1,000; pCHK1S345, 1:250; 53BP1, 1:500; cyclin A, 1:100; pRNAPII S2/S4, 1:1,000. […]
Image analysis and quantification were performed using the open-source software CellProfiler (v.4.2.1). For foci number analysis, DAPI staining, IF staining and DNA FISH channel were analysed through automatic thresholding and segmentation to cell nuclei, pRPA2S33/γH2AX foci and DNA FISH foci respectively. […] For fluorescence intensity measurement, nuclei were called based on DAPI channel through automatic thresholding and segmentation; mean fluorescence intensity was retrieved by measuring mean fluorescence intensity within each nucleus.

The subject of test [2] is ecDNA-containing tumour cells. The test is described as follows: TUNEL and PI-Annexin V staining (apoptosis). As to conditions: 1 µM CHIR-124, ecDNA-containing vs HSR cells. The format is cell-based, human. Here is the method: TUNEL assay (Invitrogen, catalogue no. C10617) was performed to detect DNA fragmentation during apoptosis. COLO320DM, COLO320HSR and SNU16 cells were treated with 1 µM CHIR-124 for indicated times. All cells including floating cells were collected and spun down onto slides using a cytospin (Thermo Scientific Cytospin 4 Centrifuge). Slides were fixed with 4% PFA and permeabilized with 0.25% Triton X-100, followed by labelling of free double strand end with EdUTP by reaction catalysed by TdT enzyme in a humidified chamber at 37 °C for 60 min. Incorporated EdUTP was detected through Click-iT Plus TUNEL reaction according to the manufacturer’s manual at 37 °C for 30 min. Slides were counterstained with DAPI and mounted with ProLong Diamond Antifade.
Cell apoptosis was detected through flow cytometry using a FITC Annexin V Apoptosis Detection Kit (BD Biosciences, catalogue no. 556547). Cells were treated with 1 µM of CHIR-124 for the indicated time, and all the cells including floating cells were collected. After washing with PBS twice and cell number counting, cells were resuspended in 1× binding buffer provided by the kit at a concentration of 1 × 10^6 cells per millilitre. […] After incubation at room temperature for 15 min, all the samples were analysed with BD LSR II flow cytometry (BD Biosciences) within 1 h. Flow cytometry data were analysed through Beckman Coulter Kaluza software (v.2.1).

The target in test [3] is T1, Full-length human CHK1 protein (Homo sapiens, UniProt O14757).
T1 construct: purchased Carna Biosciences, Inc. 02-117
T1 sequence (O14757 1-476): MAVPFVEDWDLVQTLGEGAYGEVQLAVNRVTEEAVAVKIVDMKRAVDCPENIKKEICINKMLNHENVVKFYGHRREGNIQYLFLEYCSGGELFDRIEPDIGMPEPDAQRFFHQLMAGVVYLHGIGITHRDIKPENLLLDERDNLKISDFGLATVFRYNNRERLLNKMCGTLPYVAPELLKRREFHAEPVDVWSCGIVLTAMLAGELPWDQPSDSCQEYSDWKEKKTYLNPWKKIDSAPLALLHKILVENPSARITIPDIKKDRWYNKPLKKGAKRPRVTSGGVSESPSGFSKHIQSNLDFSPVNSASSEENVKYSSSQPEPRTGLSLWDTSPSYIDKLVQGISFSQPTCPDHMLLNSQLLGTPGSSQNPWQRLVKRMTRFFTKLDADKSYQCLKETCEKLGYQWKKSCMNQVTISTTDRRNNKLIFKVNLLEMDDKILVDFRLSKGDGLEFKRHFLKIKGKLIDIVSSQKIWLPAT
The test is described as follows: Kinase HTRF biochemical assay (CHK1 enzyme inhibition). As to conditions: HTRF KinEASE, ATP 1 mM; read-out: CHK1 biochemical potency (IC50). (Time-resolved FRET reads energy transfer from a long-lived donor to a nearby acceptor.)
Experimental: CHK1 enzyme activity was measured using a homogeneous time resolved fluorescence (HTRF) KinEASE assay (Cisbio, catalogue no. 62ST1PEC). Full-length human CHK1 protein (GenBank accession number NP_001265.1) was obtained from Carna Biosciences, Inc. (catalogue no. 02-117). The enzyme reaction was carried out in assay buffer containing (final concentrations): CHK1 enzyme (0.012 ng µl^−^1), MgCl2 (5 mM) and DTT (1 mM). To determine compound dose response, DMSO stock solutions were serially diluted in a ten-point concentration series in duplicate. Compound solution (50 nl) was added to 384-well assay plates (Greiner, catalogue no. 784075). To each well containing compound solution was added assay buffer solution (5 µl). Plates were centrifuged at 1,000 rpm for 1 min, then incubated at room temperature for 10 min. The reaction was started by addition of substrate buffer (5 µl per well) containing (final concentrations): STK substrate 1-biotin (120 nM) and ATP (1 mM). Assay plates were centrifuged at 1,000 rpm for 1 min, then incubated at room temperature for 60 min. The reaction was stopped by the addition of detection buffer (Cisbio, 10 µl) containing (final concentrations): STK antibody cryptate (0.25 nM) and streptavidin-XL665 (7.5 nM). […] HTRF signal was read on an EnVision multimode plate reader (Cisbio) in HTRF mode. […]

The subject of another test is CHK1/CHK2. As to the kind of experiment: CHK1/CHK2 selectivity. The format is biochemical.
The subject of a further test is pCHK1-S345 in HT29 cells. As to the kind of experiment: AlphaLISA SureFire Ultra p-CHK1 (Ser345) assay in HT29 cells. The format is cell-based. As to conditions: 16 h, read-out: CHK1 cellular potency AlphaLisa (IC50). Here is the method:
Compound activity in cells was measured using an AlphaLISA SureFire Ultra p-CHK1 (Ser345) assay (Perkin Elmer, catalogue no. ALSU-PCHK1-A10K). HT29 cells were cultured in McCoy 5 A medium with 10% FBS and 1% penicillin-streptomycin and seeded to 96-well plates (Corning, catalogue no. 3599). Compounds were serially diluted in DMSO over a 10-point dose range with 3-fold dilution, and compound solution was added to each well containing cells. Plates were centrifuged at 1,000 rpm for 30 s. Plates were incubated at 37 °C for 16 h. Supernatant was removed by flicking the plate against a paper towel. Wells were washed once with PBS solution. To each well was added freshly prepared lysis buffer and plates were agitated on a plate shaker at 400 rpm for 30 min. The 96-well cell plates were centrifuged at 1,500 rpm for 1 min. From each well was transferred 10 µl of the lysates to a 384-well Optiplate (Perkin Elmer, catalogue no. 6007290). To each well was added Acceptor Mix (5 µl) and the plates were sealed and wrapped in foil. Plates were agitated on a plate shaker for 2 min, then incubated at room temperature for 1 h. To each well was added Donor Mix (5 µl) and the plates were sealed and wrapped in foil. Plates were agitated on a plate shaker for 2 min, then incubated at room temperature for 1 h. AlphaLisa signal was read on an EnVision multimode plate reader (Perkin Elmer). […]

Setting [4] is: Extended Data Fig. 8, read-out: IC50 COLO320DM.

Where two headings read alike, the source gives them in different places.

`O=c1[nH]c2ccc(Cl)cc2c(N[C@@H]2CN3CCC2CC3)c1-c1nc2ccccc2[nH]1` [CHIR-124]: the IC50 with COLO320DM cells (setting [4]) was determined as 146 nM; in the test on COLO320HSR cells, 1120 nM; in the test with SNU16 cells, 150 nM; in the test on GBM39HSR cells it was 1660 nM; with GBM39ec cells, 581 nM. In addition, in the test with COLO320HSR cells (Fig. 3d), the “IC50 fold higher in COLO320HSR compared to COLO320DM” value is “approximately 4 fold”. In test [1], the “DNA damage (γH2AX IF)” value is reported as “significantly higher DNA damage in COLO320DM compared with COLO320HSR”. The “cell apoptosis (TUNEL, PI-Annexin V)” value in test [2] is “more rapid and higher degree of cell apoptosis”.

Consider `N[C@@H]1CCCN(c2c(Br)cnc3[nH]cc(NC(=O)C4CC4)c23)C1` [GDC-0575], for which the IC50 turned out to be 12 nM in test [3]; 122 nM in the test with pCHK1-S345 in HT29 cells; 105 nM in the test with COLO320DM cells (COLO320DM cells, read-out: CTG proliferation ecDNA+ (IC50)); 167 nM in the test with COLO320DM cells (setting [4]); 588 nM in the test on COLO320HSR cells. In addition, the CHK1/CHK2 selectivity in the test on CHK1/CHK2 came to 1.5×.
